# Data: the supplement of paper PMC10307832
# How the values were obtained:
# Test in all cases: relative viability (nuclei count vs DMSO), 5 days (fraction); higher = more cells survive
# NCI-H1993 = system: NCI-H1993
# How it was run: (§1)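 Medians of duplicate plates are given as relative viability. That measure is the nuclei count in treated wells divided by the count in vehicle wells. Counts were taken on 4× images of lung cancer cell lines in 1536-well plates, 5 days after pin-tool dosing the day after seeding with one drug alone or a fixed anchor-drug dose plus five library-drug doses (not always all listed) in √10 steps.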
# NCI-H2342 = system: NCI-H2342
# How it was run: as §1
# ChaGo-K-1 = system: ChaGo-K-1
# How it was run: as §1
# NCI-H2405 = system: NCI-H2405
# How it was run: as §1
# NCI-H23 = system: NCI-H23
# How it was run: as §1
# NCI-H1734 = system: NCI-H1734
# How it was run: as §1
# NCI-H2228 = system: NCI-H2228
# How it was run: as §1
# NCI-H1975 = system: NCI-H1975
# How it was run: as §1
# HCC-78 = system: HCC-78
# How it was run: as §1
# NCI-H1355 = system: NCI-H1355
# How it was run: as §1
# LCLC-97TM1 = system: LCLC-97TM1
# How it was run: as §1
# NCI-H2126 = system: NCI-H2126
# How it was run: as §1
# NCI-H596 = system: NCI-H596
# How it was run: as §1
# HOP-62 = system: HOP-62
# How it was run: as §1
# NCI-H358 = system: NCI-H358
# How it was run: as §1
# NCI-H460 = system: NCI-H460
# How it was run: as §1
# PC-3 [JPC-3] = system: PC-3 [JPC-3]
# How it was run: as §1
# LK-2 = system: LK-2
# How it was run: as §1
# NCI-H1944 = system: NCI-H1944
# How it was run: as §1
# NCI-H1648 = system: NCI-H1648
# How it was run: as §1
# NCI-H1755 = system: NCI-H1755
# How it was run: as §1
# NCI-H1650 = system: NCI-H1650
# How it was run: as §1
# NCI-H727 = system: NCI-H727
# How it was run: as §1
smiles,measurement,setting,value
Nc1cccc2c1CN(C1CCC(=O)NC1=O)C2=O (stereo not drawn) [Lenalidomide] + O=C(CCCCCCC(=O)Nc1ccccc1)NO [Vorinostat] (partner 1 µM),relative viability,NCI-H1993; first compound 0.253 µM,0.872
same,relative viability,NCI-H1993; first compound 0.8 µM,0.615
same,relative viability,NCI-H1993; first compound 2.53 µM,0.962
same,relative viability,NCI-H1993; first compound 8 µM,0.383
same,relative viability,NCI-H2342; first compound 0.253 µM,0.744
same,relative viability,NCI-H2342; first compound 0.8 µM,0.599
same,relative viability,NCI-H2342; first compound 2.53 µM,0.923
same,relative viability,NCI-H2342; first compound 8 µM,0.654
same,relative viability,ChaGo-K-1; first compound 0.253 µM,0.773
same,relative viability,ChaGo-K-1; first compound 0.8 µM,0.753
same,relative viability,ChaGo-K-1; first compound 2.53 µM,0.838
same,relative viability,ChaGo-K-1; first compound 8 µM,0.694
same,relative viability,NCI-H2405; first compound 0.253 µM,1.12
same,relative viability,NCI-H2405; first compound 0.8 µM,0.934
same,relative viability,NCI-H2405; first compound 2.53 µM,1.09
same,relative viability,NCI-H2405; first compound 8 µM,0.943
same,relative viability,NCI-H23; first compound 0.253 µM,0.511
same,relative viability,NCI-H23; first compound 2.53 µM,0.747
same,relative viability,NCI-H23; first compound 8 µM,0.407
same,relative viability,NCI-H1734; first compound 0.253 µM,0.855
same,relative viability,NCI-H1734; first compound 0.8 µM,0.759
same,relative viability,NCI-H1734; first compound 2.53 µM,0.871
same,relative viability,NCI-H1734; first compound 8 µM,0.735
same,relative viability,NCI-H2228; first compound 0.253 µM,0.451
same,relative viability,NCI-H2228; first compound 0.8 µM,0.505
same,relative viability,NCI-H2228; first compound 2.53 µM,1.09
same,relative viability,NCI-H2228; first compound 8 µM,1.12
same,relative viability,NCI-H1975; first compound 0.253 µM,0.72
same,relative viability,NCI-H1975; first compound 0.8 µM,0.768
same,relative viability,NCI-H1975; first compound 2.53 µM,0.736
same,relative viability,NCI-H1975; first compound 8 µM,0.744
same,relative viability,HCC-78; first compound 0.253 µM,0.447
same,relative viability,HCC-78; first compound 0.8 µM,0.456
same,relative viability,HCC-78; first compound 2.53 µM,0.474
same,relative viability,HCC-78; first compound 8 µM,0.486
same,relative viability,NCI-H1355; first compound 0.253 µM,0.608
same,relative viability,NCI-H1355; first compound 0.8 µM,0.455
same,relative viability,NCI-H1355; first compound 2.53 µM,0.707
same,relative viability,NCI-H1355; first compound 8 µM,0.495
same,relative viability,LCLC-97TM1; first compound 0.253 µM,0.586
same,relative viability,LCLC-97TM1; first compound 0.8 µM,0.581
same,relative viability,LCLC-97TM1; first compound 2.53 µM,0.901
same,relative viability,LCLC-97TM1; first compound 8 µM,0.507
same,relative viability,NCI-H2126; first compound 0.253 µM,0.771
same,relative viability,NCI-H2126; first compound 0.8 µM,0.747
same,relative viability,NCI-H2126; first compound 2.53 µM,0.832
same,relative viability,NCI-H2126; first compound 8 µM,0.658
same,relative viability,NCI-H596; first compound 0.253 µM,0.584
same,relative viability,NCI-H596; first compound 0.8 µM,0.464
same,relative viability,NCI-H596; first compound 2.53 µM,0.689
same,relative viability,NCI-H596; first compound 8 µM,0.52
same,relative viability,HOP-62; first compound 0.253 µM,0.56
same,relative viability,HOP-62; first compound 0.8 µM,0.565
same,relative viability,HOP-62; first compound 2.53 µM,0.662
same,relative viability,HOP-62; first compound 8 µM,0.519
same,relative viability,NCI-H358; first compound 0.8 µM,0.748
same,relative viability,NCI-H358; first compound 2.53 µM,0.745
same,relative viability,NCI-H358; first compound 8 µM,0.72
same,relative viability,NCI-H460; first compound 0.253 µM,0.815
same,relative viability,NCI-H460; first compound 0.8 µM,0.715
same,relative viability,NCI-H460; first compound 2.53 µM,1.03
same,relative viability,NCI-H460; first compound 8 µM,0.783
same,relative viability,PC-3 [JPC-3]; first compound 0.253 µM,1.02
same,relative viability,PC-3 [JPC-3]; first compound 0.8 µM,0.721
same,relative viability,PC-3 [JPC-3]; first compound 2.53 µM,0.903
same,relative viability,PC-3 [JPC-3]; first compound 8 µM,0.72
same,relative viability,LK-2; first compound 0.253 µM,0.339
same,relative viability,LK-2; first compound 0.8 µM,0.252
same,relative viability,LK-2; first compound 2.53 µM,0.353
same,relative viability,LK-2; first compound 8 µM,0.189
same,relative viability,NCI-H1944; first compound 0.253 µM,0.543
same,relative viability,NCI-H1944; first compound 2.53 µM,0.58
same,relative viability,NCI-H1944; first compound 8 µM,0.44
same,relative viability,NCI-H1648; first compound 0.253 µM,0.513
same,relative viability,NCI-H1648; first compound 2.53 µM,0.885
same,relative viability,NCI-H1648; first compound 8 µM,0.392
same,relative viability,NCI-H1755; first compound 0.253 µM,0.78
same,relative viability,NCI-H1755; first compound 0.8 µM,0.649
same,relative viability,NCI-H1755; first compound 2.53 µM,0.728
same,relative viability,NCI-H1755; first compound 8 µM,0.593
same,relative viability,NCI-H1650; first compound 0.253 µM,0.545
same,relative viability,NCI-H1650; first compound 0.8 µM,0.527
same,relative viability,NCI-H1650; first compound 2.53 µM,0.543
same,relative viability,NCI-H1650; first compound 8 µM,0.664
same,relative viability,NCI-H727; first compound 0.253 µM,1.26
same,relative viability,NCI-H727; first compound 0.8 µM,1.04
same,relative viability,NCI-H727; first compound 2.53 µM,1.32
same,relative viability,NCI-H727; first compound 8 µM,1.22
